Laboratory results from patent publication US20060217294A1, “Compounds binding to p-selectin” (YAMANOUCHI EUROPE B.V., priority 2002, published 2006).
Like-named read-outs stand apart in the source and are kept apart here. Numbered stars: 1 amine (or outer) side, 2 acyl side, 3 side chain; on linkers, the order of the positions; unused ones are H or OH. Square brackets hold non-standard residues; d marks the D form. Peptide text beside a SMILES is read from it. * marks the point of attachment. Trimesoyl = O=C(c1cc(C(=O)[*:2])cc(C(=O)[*:3])c1)[*:1]; Thiophene2carbonyl = O=C(c1cccs1)*; 1Naphthoyl = O=C(c1cccc2ccccc12)*; Galloyl = O=C(c1cc(O)c(O)c(O)c1)*; Trx = NC[C@H]1CC[C@H](C(=O)O)CC1; 4Amb = NCc1ccc(C(=O)O)cc1; 4Abz = Nc1ccc(C(=O)O)cc1; Butyryl = CCCC(=O)*; Bz = O=C(c1ccccc1)*; X1 = CN(C)CCCC(=O)*; Ahx = NCCCCCC(=O)O; GABA = NCCCC(=O)O

Tests used:
human P-selectin [1] = target: T1, human P-selectin (Homo sapiens, UniProt P16109); assay: Competition assay with TM11-PO (competition ELISA); assay type: binding
T1 construct: IgG-Fc (fusion partner); purchased R&D Systems Europe Ltd., Abingdon, United Kingdom
T1 sequence (P16109 with tags, fused parts or gaps limits assumed): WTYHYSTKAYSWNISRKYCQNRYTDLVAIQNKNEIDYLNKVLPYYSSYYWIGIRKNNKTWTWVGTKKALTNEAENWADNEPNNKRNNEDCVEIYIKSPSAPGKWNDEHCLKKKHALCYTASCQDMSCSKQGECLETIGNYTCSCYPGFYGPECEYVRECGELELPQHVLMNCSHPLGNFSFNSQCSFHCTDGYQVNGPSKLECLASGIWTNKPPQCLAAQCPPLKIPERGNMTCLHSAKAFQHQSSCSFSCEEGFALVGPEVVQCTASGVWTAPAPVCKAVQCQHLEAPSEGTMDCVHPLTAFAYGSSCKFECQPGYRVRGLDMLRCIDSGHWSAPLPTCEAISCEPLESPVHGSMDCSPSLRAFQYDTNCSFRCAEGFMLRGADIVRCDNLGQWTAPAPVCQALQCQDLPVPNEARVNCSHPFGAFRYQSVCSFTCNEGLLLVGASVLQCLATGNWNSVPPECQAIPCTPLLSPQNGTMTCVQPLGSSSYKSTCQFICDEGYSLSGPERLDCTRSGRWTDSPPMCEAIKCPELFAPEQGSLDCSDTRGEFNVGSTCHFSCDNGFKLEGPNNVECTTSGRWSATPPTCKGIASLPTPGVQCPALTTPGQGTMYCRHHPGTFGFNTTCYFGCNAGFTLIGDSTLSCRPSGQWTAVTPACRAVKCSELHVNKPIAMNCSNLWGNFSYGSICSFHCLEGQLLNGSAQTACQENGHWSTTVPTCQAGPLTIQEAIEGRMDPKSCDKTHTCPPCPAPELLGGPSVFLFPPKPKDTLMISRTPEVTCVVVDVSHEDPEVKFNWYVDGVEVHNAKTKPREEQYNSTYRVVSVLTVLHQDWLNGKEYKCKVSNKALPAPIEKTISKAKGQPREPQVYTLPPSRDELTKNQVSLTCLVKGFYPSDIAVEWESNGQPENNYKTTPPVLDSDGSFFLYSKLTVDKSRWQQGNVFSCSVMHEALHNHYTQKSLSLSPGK
Protocol: Compounds according to the invention, as prepared in examples 1, 2 and 3 and some reference peptide compounds were assayed for its ability to inhibit TM11-PO binding to human P-selectin. […] For competition studies, a 96 wells microtiter plate (high binding, flat bottom, Costar, Corning, U.S.A.) was coated overnight at 4° C. with 10 μg/ml goat anti-human IgG (Fc specific) (Sigma-Aldrich, Zwijndrecht, the Netherlands) in coating buffer (50 mM NaHCO3, pH 9.6). Subsequently, wells were washed with assay buffer and incubated for 1 hour at 37° C. with blocking buffer (3% BSA in assay buffer). After washing with assay buffer, the wells were incubated for 2 hours at 37° C. with the human P-selectin IgG-Fc chimera (R&D Systems Europe Ltd., Abingdon, United Kingdom) (0.3 μg/ml). Subsequently, wells were washed with assay buffer and incubated for 1 hour at 4° C. with the TM11-PO complex. The wells were washed six times with washing buffer (0.1% Tween 20 in assay buffer). […] (TMB)/hydrogen peroxide (H2O2) (Pierce, Rochford, U.S.A.) was added and wells were incubated at room temperature for 15 minutes. The reaction was halted by addition of 2 M H2SO4 and the absorbance was measured at 450 nm.

human P-selectin [2] = target: T1, human P-selectin; details: Table 2; values marked b, from not pre-published European patent application 01203314.8; read-out: IC50 for human P-selectin as determined by competition Elisa; cited from earlier work
P-selectin = target: T2, P-selectin (Homo sapiens, UniProt P16109); details: described in European patent application No. 01203314.8; read-out: affinity for P-selectin, IC50; cited from earlier work
T2 sequence (P16109 42-830): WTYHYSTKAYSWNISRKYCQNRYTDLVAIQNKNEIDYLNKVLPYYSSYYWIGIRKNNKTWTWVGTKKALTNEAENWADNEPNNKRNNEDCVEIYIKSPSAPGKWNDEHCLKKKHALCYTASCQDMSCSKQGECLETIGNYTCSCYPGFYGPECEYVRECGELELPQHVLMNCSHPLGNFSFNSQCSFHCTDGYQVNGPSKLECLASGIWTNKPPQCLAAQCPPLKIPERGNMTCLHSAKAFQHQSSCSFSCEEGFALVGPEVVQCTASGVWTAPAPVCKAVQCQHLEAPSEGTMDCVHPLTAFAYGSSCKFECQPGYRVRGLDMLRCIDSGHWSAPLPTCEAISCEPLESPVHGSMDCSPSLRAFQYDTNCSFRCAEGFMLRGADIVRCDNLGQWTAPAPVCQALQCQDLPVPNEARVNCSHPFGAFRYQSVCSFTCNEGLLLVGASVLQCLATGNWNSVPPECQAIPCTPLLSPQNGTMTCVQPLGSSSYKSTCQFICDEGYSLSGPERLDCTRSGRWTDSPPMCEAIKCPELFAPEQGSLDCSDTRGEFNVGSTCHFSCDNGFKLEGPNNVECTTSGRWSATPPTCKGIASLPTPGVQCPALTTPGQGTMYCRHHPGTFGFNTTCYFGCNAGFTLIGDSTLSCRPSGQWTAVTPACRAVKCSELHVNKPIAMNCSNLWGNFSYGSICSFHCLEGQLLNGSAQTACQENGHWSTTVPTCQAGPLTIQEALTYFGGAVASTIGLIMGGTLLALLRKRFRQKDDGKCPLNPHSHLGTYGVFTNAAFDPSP

[3] = Table 1, derivatised peptides HPij, inhibition of TM11-PO binding to human P-selectin, read-out: IC50
[4] = Table 3, gallic acid derivatized peptides, mean of at least 3 experiments at 8 concentrations, read-out: IC50 for human P-selectin as determined by competition Elisa

In the case of `CC(C)[C@H](NC(=O)[C@H](CC(=O)O)NC(=O)[C@@H](NC(=O)[C@H](Cc1c[nH]c2ccccc12)NC(=O)[C@@H](N)CCC(=O)O)C(C)C)C(=O)N[C@@H](CCCCNC(=O)c1cc(O)c(O)c(O)c1)C(=O)NCCCC(=O)O` [HP06] (H-EWVDVK(Galloyl)[GABA]-OH), the IC50 (human P-selectin [1]; [3]) is reported as 6 µM.

Molecule `CC(C)[C@H](NC(=O)[C@H](CC(=O)O)NC(=O)[C@@H](NC(=O)[C@H](Cc1c[nH]c2ccccc12)NC(=O)[C@H](CCC(=O)O)NC(=O)c1cc(C(=O)O)cc(C(=O)O)c1)C(C)C)C(=O)N[C@@H](CCCCNC(=O)c1cc(O)c(O)c(O)c1)C(=O)NCCCC(=O)O` [HP16] (Trimesoyl-EWVDVK(Galloyl)[GABA]-OH) has an IC50 (human P-selectin [1]; [3]) of 0.31 µM.

In the case of DWVDV [Peptide A129], the IC50 (human P-selectin [2]) is listed as 16 µM.

For EWVDV [Peptide A29], the IC50 (human P-selectin [2]) is listed as 8 µM and the IC50 (P-selectin) is listed as roughly 2 µM.

In the case of CDVEWVDVSSLEWDLPC [TM11], the IC50 (human P-selectin [2]) is given as 2 µM.

`CC(C)[C@H](NC(=O)[C@H](CC(=O)O)NC(=O)[C@@H](NC(=O)[C@H](Cc1c[nH]c2ccccc12)NC(=O)CCCNC(=O)c1cc(O)c(O)c(O)c1)C(C)C)C(=O)O` [Peptide 28] ({Galloyl-GABA}-WVDV-OH) showed an IC50 (human P-selectin [1]; [4]) of 0.0154 µM.

For `CC(C)[C@H](NC(=O)[C@H](CC(=O)O)NC(=O)[C@@H](NC(=O)[C@H](Cc1c[nH]c2ccccc12)NC(=O)CCCCCNC(=O)c1cc(O)c(O)c(O)c1)C(C)C)C(=O)O` [Peptide 29] ({Galloyl-Ahx}-WVDV-OH), the IC50 (human P-selectin [1]; [4]) was 0.0629 µM.

For `CCCC(=O)NCCCC[C@H](NC(=O)[C@@H](NC(=O)[C@H](CC(=O)O)NC(=O)[C@@H](NC(=O)[C@H](Cc1c[nH]c2ccccc12)NC(=O)[C@H](CCC(=O)O)NC(=O)c1cc(O)c(O)c(O)c1)C(C)C)C(C)C)C(=O)NCCCC(=O)O` [HP65] (Galloyl-EWVDVK(Butyryl)[GABA]-OH), the IC50 (human P-selectin [1]; [3]) was 2.35 µM.

In the case of `CC(C)[C@H](NC(=O)[C@H](CC(=O)O)NC(=O)[C@@H](NC(=O)[C@H](Cc1c[nH]c2ccccc12)NC(=O)[C@H](CCC(=O)O)NC(=O)c1cc(O)c(O)c(O)c1)C(C)C)C(=O)N[C@@H](CCCCNC(=O)c1cc(C(=O)O)cc(C(=O)O)c1)C(=O)NCCCC(=O)O` [HP61] (Galloyl-EWVDVK(Trimesoyl)[GABA]-OH), the IC50 (human P-selectin [1]; [3]) is reported as 0.19 µM.

For `CC(C)[C@H](NC(=O)[C@H](CC(=O)O)NC(=O)[C@@H](NC(=O)[C@H](Cc1c[nH]c2ccccc12)NC(=O)CNC(=O)c1cc(O)c(O)c(O)c1)C(C)C)C(=O)O` [Peptide 27] (Galloyl-GWVDV-OH), the IC50 (human P-selectin [1]; [4]) was 0.0183 µM.

For `CC(C)[C@H](NC(=O)[C@H](CC(=O)O)NC(=O)[C@@H](NC(=O)[C@H](Cc1c[nH]c2ccccc12)NC(=O)[C@H](CCC(=O)O)NC(=O)c1cc(C(=O)O)cc(C(=O)O)c1)C(C)C)C(=O)N[C@@H](CCCCNC(=O)c1cccc2ccccc12)C(=O)NCCCC(=O)O` [HP14] (Trimesoyl-EWVDVK(1Naphthoyl)[GABA]-OH), the IC50 (human P-selectin [1]; [3]) was 1.02 µM.

In the case of AWVDV [Peptide A131], the IC50 (human P-selectin [2]) is listed as 27 µM.

Molecule `CC(C)[C@H](NC(=O)[C@H](CC(=O)O)NC(=O)[C@@H](NC(=O)[C@H](Cc1c[nH]c2ccccc12)NC(=O)c1cc(O)c(O)c(O)c1)C(C)C)C(=O)O` [Peptide 12, GA-WVDV] (Galloyl-WVDV-OH) has an IC50 (human P-selectin [1]; Table 2, average of at least 3 experiments at 8 concentrations, TM11-PO competition ELISA, read-out: IC50 for human P-selectin as determined by competition Elisa) of 0.037 µM and an IC50 (human P-selectin [1]; [4]) of 0.0371 µM.

Work on `CC(C)[C@H](NC(=O)[C@H](CC(=O)O)NC(=O)[C@@H](NC(=O)[C@H](Cc1c[nH]c2ccccc12)NC(=O)[C@H](CCC(=O)O)NC(=O)c1cc(O)c(O)c(O)c1)C(C)C)C(=O)N[C@@H](CCCCNC(=O)c1cccs1)C(=O)NCCCC(=O)O` [HP63] (Galloyl-EWVDVK(Thiophene2carbonyl)[GABA]-OH) yielded an IC50 (human P-selectin [1]; [3]) of 3.4 µM.

With `CC(C)[C@H](NC(=O)[C@H](CC(=O)O)NC(=O)[C@@H](NC(=O)[C@H](Cc1c[nH]c2ccccc12)NC(=O)c1ccc(CNC(=O)c2cc(O)c(O)c(O)c2)cc1)C(C)C)C(=O)O` [Peptide 32] ({Galloyl-4Amb}-WVDV-OH) the IC50 (human P-selectin [1]; [4]) was 0.59 µM.

Work on `CC(C)[C@H](NC(=O)[C@H](CC(=O)O)NC(=O)[C@@H](NC(=O)[C@H](Cc1c[nH]c2ccccc12)NC(=O)[C@H](CCC(=O)O)NC(=O)c1cc(O)c(O)c(O)c1)C(C)C)C(=O)N[C@@H](CCCCNC(=O)CCCN(C)C)C(=O)NCCCC(=O)O` [HP62] (Galloyl-EWVDVK(X1)[GABA]-OH) yielded an IC50 (human P-selectin [1]; [3]) of 0.28 µM.

In the case of `CC(C)[C@H](NC(=O)[C@H](CC(=O)O)NC(=O)[C@@H](NC(=O)[C@H](Cc1c[nH]c2ccccc12)NC(=O)[C@@H]1CCCN1C(=O)c1cc(O)c(O)c(O)c1)C(C)C)C(=O)O` [Peptide 30] (Galloyl-PWVDV-OH), the IC50 (human P-selectin [1]; [4]) is reported as 0.25 µM.

`CC(C)[C@H](NC(=O)[C@H](CC(=O)O)NC(=O)[C@@H](NC(=O)[C@H](Cc1c[nH]c2ccccc12)NC(=O)c1ccc(NC(=O)c2cc(O)c(O)c(O)c2)cc1)C(C)C)C(=O)O` [Peptide 31] ({Galloyl-4Abz}-WVDV-OH) gave an IC50 (human P-selectin [1]; [4]) greater than 1 µM.

In the case of `CC(C)[C@H](NC(=O)[C@H](CC(=O)O)NC(=O)[C@@H](NC(=O)[C@H](Cc1c[nH]c2ccccc12)NC(=O)[C@H](CCC(=O)O)NC(=O)c1cc(C(=O)O)cc(C(=O)O)c1)C(C)C)C(=O)N[C@@H](CCCCNC(=O)c1ccccc1)C(=O)NCCCC(=O)O` [HP17] (Trimesoyl-EWVDVK(Bz)[GABA]-OH), the IC50 (human P-selectin [1]; [3]) is reported as 0.45 µM.

For WVDV [Peptide A138], the IC50 (human P-selectin [2]) is listed as greater than 1000 µM.

For `CC(C)[C@H](NC(=O)[C@H](CC(=O)O)NC(=O)[C@@H](NC(=O)[C@H](Cc1c[nH]c2ccccc12)NC(=O)[C@H](CCC(=O)O)NC(=O)c1cc(O)c(O)c(O)c1)C(C)C)C(=O)N[C@@H](CCCCN)C(=O)NCCCC(=O)O` [HP60] (Galloyl-EWVDVK[GABA]-OH), the IC50 (human P-selectin [1]; [3]) was 1.1 µM.

Molecule `CC(C)[C@H](NC(=O)[C@H](CC(=O)O)NC(=O)[C@@H](NC(=O)[C@H](Cc1c[nH]c2ccccc12)NC(=O)[C@H]1CC[C@H](CNC(=O)c2cc(O)c(O)c(O)c2)CC1)C(C)C)C(=O)O` [Peptide 33] ({Galloyl-Trx}-WVDV-OH) has an IC50 (human P-selectin [1]; [4]) of 0.58 µM.

For KWVDV [Peptide A130], the IC50 (human P-selectin [2]) is listed as 28 µM.
